The series addresses ATP-binding cassette sub-family C member 2 (Homo sapiens, UniProt Q92887). The series can be described thus: TP_TRANSPORTER: Immunoblot analysis in Caco-2 cells. It is filed as functional, cell-based.

The record followed here is ChEMBL document CHEMBL2074459, “Coordinate induction by antioxidants of UDP-glucuronosyltransferase UGT1A6 and the apical conjugate export pump MRP2 (multidrug resistance protein 2) in Caco-2 cells” (Biochem Pharmacol, 2000).

ATP-binding cassette sub-family C member 2, sequence (Q92887 whole entry): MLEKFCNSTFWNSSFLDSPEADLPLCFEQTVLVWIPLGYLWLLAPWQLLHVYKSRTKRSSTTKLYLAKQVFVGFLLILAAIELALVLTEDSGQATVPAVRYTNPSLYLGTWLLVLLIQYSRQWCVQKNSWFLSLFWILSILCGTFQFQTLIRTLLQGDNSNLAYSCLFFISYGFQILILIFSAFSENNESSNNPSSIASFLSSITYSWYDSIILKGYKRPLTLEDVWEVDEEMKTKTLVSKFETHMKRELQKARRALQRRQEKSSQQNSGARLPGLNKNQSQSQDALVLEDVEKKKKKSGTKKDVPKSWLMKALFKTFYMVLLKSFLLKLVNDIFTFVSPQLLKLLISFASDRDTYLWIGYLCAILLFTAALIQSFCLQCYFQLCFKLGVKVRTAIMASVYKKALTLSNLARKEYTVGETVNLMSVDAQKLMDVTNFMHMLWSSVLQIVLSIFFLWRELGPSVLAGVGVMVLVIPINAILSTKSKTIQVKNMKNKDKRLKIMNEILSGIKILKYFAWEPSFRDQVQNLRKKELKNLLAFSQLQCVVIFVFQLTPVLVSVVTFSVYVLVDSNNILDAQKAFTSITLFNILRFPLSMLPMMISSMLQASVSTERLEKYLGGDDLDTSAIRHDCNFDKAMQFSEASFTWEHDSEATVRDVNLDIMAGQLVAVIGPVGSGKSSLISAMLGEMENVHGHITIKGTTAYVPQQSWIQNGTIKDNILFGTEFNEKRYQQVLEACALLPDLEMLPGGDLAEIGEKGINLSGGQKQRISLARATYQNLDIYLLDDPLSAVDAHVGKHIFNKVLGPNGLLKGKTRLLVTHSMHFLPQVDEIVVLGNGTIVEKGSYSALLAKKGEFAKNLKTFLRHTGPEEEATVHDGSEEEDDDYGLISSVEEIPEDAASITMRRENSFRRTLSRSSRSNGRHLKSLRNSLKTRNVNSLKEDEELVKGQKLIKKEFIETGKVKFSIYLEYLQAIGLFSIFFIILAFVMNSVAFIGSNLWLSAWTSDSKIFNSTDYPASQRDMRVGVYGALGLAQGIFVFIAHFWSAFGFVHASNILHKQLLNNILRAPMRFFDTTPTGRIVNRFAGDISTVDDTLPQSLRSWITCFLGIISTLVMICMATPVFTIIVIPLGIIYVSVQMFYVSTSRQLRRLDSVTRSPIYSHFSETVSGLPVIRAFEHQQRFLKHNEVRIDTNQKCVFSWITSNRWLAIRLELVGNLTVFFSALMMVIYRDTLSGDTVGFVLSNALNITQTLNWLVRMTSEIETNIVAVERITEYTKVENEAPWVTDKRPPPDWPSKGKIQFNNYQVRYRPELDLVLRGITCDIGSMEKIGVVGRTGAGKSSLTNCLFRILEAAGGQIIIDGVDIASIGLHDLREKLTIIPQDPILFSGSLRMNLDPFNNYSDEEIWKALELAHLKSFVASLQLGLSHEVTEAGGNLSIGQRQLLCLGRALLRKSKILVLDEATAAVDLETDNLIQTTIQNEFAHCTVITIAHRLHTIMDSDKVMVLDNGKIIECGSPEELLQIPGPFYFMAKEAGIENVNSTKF

As to `O=c1c(O)c(-c2ccc(O)c(O)c2)oc2cc(O)cc(O)c12` [QUERCETIN], the Activity entry is “inducer [+]”.
